Series [1] deals with T1, Sodium/glucose cotransporter 2 (Homo sapiens, UniProt P31639).
T1 sequence (P31639 whole entry): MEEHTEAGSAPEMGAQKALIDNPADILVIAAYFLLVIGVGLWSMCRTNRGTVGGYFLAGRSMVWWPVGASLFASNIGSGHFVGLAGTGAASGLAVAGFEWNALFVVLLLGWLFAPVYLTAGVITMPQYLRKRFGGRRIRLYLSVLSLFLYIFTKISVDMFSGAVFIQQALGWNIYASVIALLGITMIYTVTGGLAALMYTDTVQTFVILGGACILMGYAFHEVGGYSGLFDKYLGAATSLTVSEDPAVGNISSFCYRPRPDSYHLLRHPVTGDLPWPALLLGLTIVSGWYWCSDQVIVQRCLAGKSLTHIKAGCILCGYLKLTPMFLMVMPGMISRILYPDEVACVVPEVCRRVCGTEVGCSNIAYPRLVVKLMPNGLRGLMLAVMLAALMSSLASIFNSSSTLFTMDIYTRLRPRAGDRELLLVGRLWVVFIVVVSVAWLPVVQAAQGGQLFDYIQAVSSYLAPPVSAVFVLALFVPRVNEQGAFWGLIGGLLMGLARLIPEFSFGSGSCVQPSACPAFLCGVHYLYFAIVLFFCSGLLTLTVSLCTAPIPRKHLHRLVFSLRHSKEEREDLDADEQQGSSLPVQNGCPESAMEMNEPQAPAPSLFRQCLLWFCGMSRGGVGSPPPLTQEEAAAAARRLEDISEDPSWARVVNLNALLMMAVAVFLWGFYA
As to the kind of experiment: Inhibition of human SGLT2 expressed in CHOK1 cells assessed as reduction in Na-dependent [14C]-methyl-alpha-D-glucopyranoside uptake after 1 hr by microbeta counting method. The format is cell-based.

For series [2], the target named is T2, Sodium/glucose cotransporter 1 (Homo sapiens, UniProt P13866).
T2 sequence (P13866 whole entry): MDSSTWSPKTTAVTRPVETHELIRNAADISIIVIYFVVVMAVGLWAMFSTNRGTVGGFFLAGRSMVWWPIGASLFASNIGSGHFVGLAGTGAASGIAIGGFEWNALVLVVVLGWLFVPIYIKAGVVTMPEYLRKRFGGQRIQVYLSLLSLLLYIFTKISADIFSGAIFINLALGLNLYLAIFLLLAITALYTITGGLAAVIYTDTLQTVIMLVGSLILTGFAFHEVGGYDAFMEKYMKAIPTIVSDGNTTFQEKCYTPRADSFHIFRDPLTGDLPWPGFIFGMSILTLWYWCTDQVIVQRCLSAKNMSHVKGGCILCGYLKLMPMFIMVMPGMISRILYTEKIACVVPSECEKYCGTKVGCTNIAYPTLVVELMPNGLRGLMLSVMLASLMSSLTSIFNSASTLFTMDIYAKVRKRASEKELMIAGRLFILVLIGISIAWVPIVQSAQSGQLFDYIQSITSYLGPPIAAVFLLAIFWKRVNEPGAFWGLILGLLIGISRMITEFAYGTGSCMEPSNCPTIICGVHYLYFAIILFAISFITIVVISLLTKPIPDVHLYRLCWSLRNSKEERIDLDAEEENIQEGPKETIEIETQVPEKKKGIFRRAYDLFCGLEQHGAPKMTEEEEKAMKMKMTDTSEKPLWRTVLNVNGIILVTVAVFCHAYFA
As to the kind of experiment: Inhibition of human SGLT1 expressed in CHOK1 cells assessed as reduction in Na-dependent [14C]-methyl-alpha-D-glucopyranoside uptake after 30 mins by microbeta counting method. Type of series: cell-based.

Series [3] deals with Rattus norvegicus. As to the kind of experiment: In vivo inhibition of SGLT2 Sprague-Dawley rat assessed as increase in urinary glucose excretion at 0.1 to 0.3 mg/kg, po bid for 4 days followed by glucose challenge on day 5. Type of series: functional, organism-based.
The nature of series [4]: Cmax in Sprague-Dawley rat at 1 mg/kg, po administered as single dose by LC-MS analysis. Type of series: ADME, organism-based. Further details: dose 1 mg/kg, route oral. The settings on record: in vivo.
A short description of series [5]: Tmax in Sprague-Dawley rat at 1 mg/kg, po administered as single dose by LC-MS analysis. As to conditions: in vivo. The format is ADME, organism-based.
Series [6] deals with Rattus norvegicus. As to the kind of experiment: Hypoglycemic effect in Sprague-Dawley rat assessed as reduction in blood glucose AUC (0 to 2 hrs) pretreated orally followed by glucose challenge by OGTT. Type of series: functional, organism-based.
Series [7] can be described thus: Volume of distribution at steady state in Sprague-Dawley rat at 2 mg/kg, iv administered as single dose by LC-MS analysis. The format is ADME, organism-based. The settings on record: in vivo, read-out: Vdss.
Series [8] concerns Rattus norvegicus. As to the kind of experiment: Hypoglycemic effect in Sprague-Dawley rat assessed as reduction in blood glucose AUC (0 to 2 hrs) at 1 mg/kg, po pretreated followed by glucose challenge by OGTT relative to control. On the set-up: scale not given: the % may be the effect or the level left. Type of series: functional.
A short description of series [9]: Oral bioavailability in Sprague-Dawley rat at 1 mg/kg administered as single dose by LC-MS analysis. The format is ADME, organism-based. As to conditions: in vivo.
Series [10] in a line: Total clearance in Sprague-Dawley rat at 2 mg/kg, iv administered as single dose by LC-MS analysis. The format is ADME, organism-based. The settings on record: in vivo.
For series [11], the system named is Rattus norvegicus. As to the kind of experiment: Hypoglycemic effect in Sprague-Dawley rat assessed as reduction in blood glucose AUC (0 to 2 hrs) at 0.3 mg/kg, po pretreated followed by glucose challenge by OGTT relative to control. The format is functional. On the set-up: scale not given: the % may be the effect or the level left.
Series [12] concerns Rattus norvegicus. As to the kind of experiment: Hypoglycemic effect in Sprague-Dawley rat assessed as reduction in blood glucose AUC (0 to 2 hrs) at 0.1 mg/kg, po pretreated followed by glucose challenge by OGTT relative to control. On the set-up: scale not given: the % may be the effect or the level left. The format is functional.
Series [13] can be described thus: Permeability of the compound at 50 uM after 24 hrs at pH 7.4 by PAMPA. The settings on record: read-out: permeability. Type of series: ADME.
Series [14] in a line: Terminal half life in Sprague-Dawley rat at 2 mg/kg, iv administered as single dose by LC-MS analysis. The settings on record: in vivo, read-out: beta t1/2 (converted). Type of series: ADME, organism-based.

Calls of active or inactive are those of the source. No cut-off for these calls is given here.

The term IC50 denotes the midpoint of a concentration-inhibition curve. One may read the Cmax as the maximum level reached in the sampled fluid or tissue. The term Tmax denotes the time from dosing to the highest level. Broadly, the bioavailability is the share of a dose that reaches the circulation, judged against a reference dose that is usually intravenous. What is called clearance is a measure of how efficiently the substance is removed, as volume per time.

Take `Cc1ccc(Cc2cc([C@@H]3S[C@H](CO)[C@@H](O)[C@H](O)[C@H]3O)c(O)cc2C)cc1`: the values for the IC50 in [1] and in [2] were 2 nM and 25 nM, respectively.

As for `Cc1cc(O)c([C@@H]2O[C@H](CO)[C@@H](O)[C@H](O)[C@H]2O)cc1Cc1ccc(CCCC(=O)NC(C)(C)C(N)=O)cc1`, the IC50 in series [1] was determined as 7 nM; in series [2] it was 51 nM.

As for `Cc1cc(O)c([C@@H]2O[C@H](CO)[C@@H](O)[C@H](O)[C@H]2O)cc1Cc1ccc(CCNC(=O)NC(CO)(CO)CO)cc1`, the IC50 worked out at 7 nM in series [1] and 28 nM in series [2]. Further, the inhibition result in the series on Rattus norvegicus [3] was “inactive”. Moreover, the concentration in [4] peaked (Cmax) at 1.46 ng/mL. In series [5], the time to peak (Tmax) amounted to 15 min. The Activity result is “Dose-dependent effect” with Rattus norvegicus [6], 62.2% in the series on Rattus norvegicus [8], 58.5% with Rattus norvegicus [11] and 31.5% with Rattus norvegicus [12]. The Vd in series [7] was found to be 0.439 L/kg. Moreover, the bioavailability in [9] was found to be 0.05%. In series [10], this compound showed a clearance of 18 mL/min/kg. Also, the Papp at 24 h, 50 µM in [13] came out at 0.3 ×10⁻⁶ cm/s. For the same compound, the half-life in series [14] was 21.7 min.

For `Cc1cc(O)c([C@@H]2S[C@H](CO)[C@@H](O)[C@H](O)[C@H]2O)cc1Cc1ccc(CCCC(=O)NC(C)(C)C(N)=O)cc1`, the IC50 was 4 nM in series [1] and 47 nM in series [2].

On to `Cc1cc(O)c([C@@H]2O[C@H](CO)[C@@H](O)[C@H](O)[C@H]2O)cc1Cc1ccc(CCCC(=O)NC(CO)(CO)CO)cc1`, for which the half-inhibitory concentration (IC50) in [2] was determined as 35 nM.

On to `Cc1cc(O)c([C@@H]2S[C@H](CO)[C@@H](O)[C@H](O)[C@H]2O)cc1Cc1ccc(CCCC(=O)NC(C)(CO)CO)cc1`, for which the IC50 amounted to 5 nM in series [1] and 22 nM in series [2].

Consider `Cc1cc(O)c([C@@H]2O[C@H](CO)[C@@H](O)[C@H](O)[C@H]2O)cc1Cc1ccc(CCCNC(=O)N2CCN(C)CC2)cc1`, for which the IC50 worked out at 5 nM in series [1] and 764 nM in series [2].

On to `Cc1cc(O)c([C@@H]2S[C@H](CO)[C@@H](O)[C@H](O)[C@H]2O)cc1Cc1ccc(OC(C)C)cc1`, for which the IC50 in series [1] came to 3 nM; in [2], 414 nM.

Regarding `Cc1cc(O)c([C@@H]2O[C@H](CO)[C@@H](O)[C@H](O)[C@H]2O)cc1Cc1ccc(CCNC(=O)NC(C)(C)CO)cc1`, the IC50 in series [1] turned out to be 4 nM.

Consider `Cc1cc(O)c([C@@H]2O[C@H](CO)[C@@H](O)[C@H](O)[C@H]2O)cc1Cc1ccc(CCCNC(=O)NC(CO)(CO)CO)cc1`, for which the IC50 in series [1] stood at 7 nM.

On to `CCOc1ccc(Cc2cc([C@@H]3S[C@H](CO)[C@@H](O)[C@H](O)[C@H]3O)c(O)cc2C)cc1`, for which the IC50 in series [1] amounted to 3 nM; in series [2], 162 nM.

Regarding `Cc1cc(O)c([C@@H]2S[C@H](CO)[C@@H](O)[C@H](O)[C@H]2O)cc1Cc1ccc(CCCC(=O)NC(CO)(CO)CO)cc1`, the IC50 in series [1] is 9 nM; in series [2], 35 nM.

Regarding `CCc1ccc(Cc2cc([C@@H]3S[C@H](CO)[C@@H](O)[C@H](O)[C@H]3O)c(O)cc2C)cc1`, the IC50 in series [1] came to 2 nM.

Take `COc1ccc(Cc2cc([C@@H]3S[C@H](CO)[C@@H](O)[C@H](O)[C@H]3O)c(O)cc2C)cc1`: the IC50 in series [2] was determined as 65 nM.

As for `Cc1cc(O)c([C@@H]2O[C@H](CO)[C@@H](O)[C@H](O)[C@H]2O)cc1Cc1ccc(CCCNC(=O)NC(C)(C)CO)cc1`, the IC50 in series [1] came to 5 nM.

Regarding `Cc1cc(O)c([C@@H]2O[C@H](CO)[C@@H](O)[C@H](O)[C@H]2O)cc1Cc1ccc(CCCC(=O)NC(C)(CO)CO)cc1`, the IC50 in [2] came to 32 nM.

Source of the values: ChEMBL document CHEMBL4265985, “Discovery of a potent, low-absorbable sodium-dependent glucose cotransporter 1 (SGLT1) inhibitor (TP0438836) for the treatment of type 2 diabetes” (Bioorg Med Chem Lett, 2018).
